Target: T1, TbNT10 (Trypanosoma brucei, UniProt Q38EK0)
T1 construct: gene Tb09.160.5480; endogenous in procyclic forms and re-expressed (addback clone A) from an EP procyclin locus in the TbNT10 null mutant
Assay: 3H-adenosine uptake; wild type, null mutant and addback procyclic cells
Assay type: cell-based
Conditions: procyclic forms; 5 min; labelled compound; transporter activity judged by null mutant versus addback

T1 sequence (Q38EK0 entry or part of it): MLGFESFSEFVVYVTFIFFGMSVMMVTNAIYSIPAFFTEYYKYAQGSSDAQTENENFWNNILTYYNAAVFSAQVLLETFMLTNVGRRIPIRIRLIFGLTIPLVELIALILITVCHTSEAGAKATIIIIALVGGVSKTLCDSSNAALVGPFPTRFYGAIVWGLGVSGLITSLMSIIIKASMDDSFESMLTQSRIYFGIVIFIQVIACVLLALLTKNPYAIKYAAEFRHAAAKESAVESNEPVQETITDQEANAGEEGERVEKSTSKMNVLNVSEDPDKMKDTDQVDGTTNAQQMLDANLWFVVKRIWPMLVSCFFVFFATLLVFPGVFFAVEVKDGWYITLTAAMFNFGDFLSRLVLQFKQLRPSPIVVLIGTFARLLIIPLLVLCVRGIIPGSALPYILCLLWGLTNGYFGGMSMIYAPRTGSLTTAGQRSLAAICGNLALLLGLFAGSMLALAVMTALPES

Q: For `Nc1ncnc2c1ncn2[C@@H]1O[C@H](CO)[C@@H](O)[C@H]1O` [adenosine], which “3H-adenosine uptake; wild type, null mutant and addback procyclic cells” value is on record?
A: it is the main transporter for adenosine in this life cycle stage
